Laboratory results published in US6358885B1, “Substituted phenylheterocyclic herbicides” (Mississippi State University, priority 1992, dated 2002).

Assays:
Experiment in all cases: Test B preemergence/postemergence greenhouse plant response rating 0 to 10
barley = assay type: in vivo, Hordeum vulgare; conditions: for Plant response rating, Barley: 0 to 10 scale
Method in brief: (§1)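 Both application timings were run together: seeds got compound preemergence, and established seedlings (two to eighteen cm) got it postemergence. Non-phytotoxic solvent carried the chemical. Ratings are visual, versus controls, at twelve to sixteen days.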

giant foxtail = assay type: in vivo, Setaria faberii; conditions: for Plant response rating, Giant foxtail: 0 to 10 scale
Method in brief: as §1

rice = assay type: in vivo, Oryza sativa; conditions: for Plant response rating, Rice: 0 to 10 scale
Method in brief: as §1

corn = assay type: in vivo, Zea mays; conditions: for Plant response rating, Corn: 0 to 10 scale
Method in brief: as §1

crabgrass = assay type: in vivo, Digitaria spp.; conditions: for Plant response rating, Crabgrass: 0 to 10 scale
Method in brief: as §1

blackgrass = assay type: in vivo, Alopecurus myosuroides; conditions: for Plant response rating, Blackgrass: 0 to 10 scale
Method in brief: as §1

wild buckwheat = assay type: in vivo, Polygonum convolvulus; conditions: for Plant response rating, Wild buckwheat: 0 to 10 scale
Method in brief: as §1

sugar beet = assay type: in vivo, Beta vulgaris; conditions: for Plant response rating, Sugar beet: 0 to 10 scale
Method in brief: as §1

chickweed = assay type: in vivo, Stellaria media; conditions: for Plant response rating, Chickweed: 0 to 10 scale
Method in brief: as §1

velvetleaf = assay type: in vivo, Abutilon theophrasti; conditions: for Plant response rating, Velvetleaf: 0 to 10 scale
Method in brief: as §1

wild oat = assay type: in vivo, Avena fatua; conditions: for Plant response rating, Wild oat: 0 to 10 scale
Method in brief: as §1

cotton = assay type: in vivo, Gossypium hirsutum; conditions: for Plant response rating, Cotton: 0 to 10 scale
Method in brief: as §1

cocklebur = assay type: in vivo, Xanthium pensylvanicum; conditions: for Plant response rating, Cocklebur: 0 to 10 scale
Method in brief: as §1

barnyardgrass = assay type: in vivo, Echinochloa crus-galli; conditions: for Plant response rating, Barnyardgrass: 0 to 10 scale
Method in brief: as §1

morningglory = assay type: in vivo, Ipomoea hederacea; conditions: for Plant response rating, Morningglory: 0 to 10 scale
Method in brief: as §1

rape = assay type: in vivo, Brassica napus; conditions: for Plant response rating, Rape: 0 to 10 scale
Method in brief: as §1

lambsquarters = assay type: in vivo, Chenopodium album; conditions: for Plant response rating, Lambsquarter: 0 to 10 scale
Method in brief: as §1

sorghum = assay type: in vivo, Sorghum bicolor; conditions: for Plant response rating, Sorghum: 0 to 10 scale
Method in brief: as §1

bedstraw = assay type: in vivo, Galium aparine; conditions: for Plant response rating, Bedstraw: 0 to 10 scale
Method in brief: as §1

purple nutsedge = assay type: in vivo, Cyperus rotundus; conditions: for Plant response rating, Nutsedge: 0 to 10 scale
Method in brief: as §1

cheatgrass = assay type: in vivo, Bromus secalinus; conditions: for Plant response rating, Cheatgrass: 0 to 10 scale
Method in brief: as §1

wheat = assay type: in vivo, Triticum aestivum; conditions: for Plant response rating, Wheat: 0 to 10 scale
Method in brief: as §1

soybean = assay type: in vivo, Glycine max; conditions: for Plant response rating, Soybean: 0 to 10 scale
Method in brief: as §1

CC(C)OC(=O)COc1cc(-c2nn3c(c2Br)CCCC3)c(F)cc1Cl [Compound 64]
Plant response rating, Barley (barley; POSTEMERGENCE, Rate 50 g/ha): 2 | Plant response rating, Barley (barley; PREEMERGENCE, Rate 50 g/ha): 0 | Plant response rating (0 to 10 scale), Barley (barley; PREEMERGENCE, Rate 200 g/ha): 0 | Plant response rating, Barley (barley; Rate 200 g/ha, POSTEMERGENCE): 3 | Plant response rating, Giant foxtail (giant foxtail; POSTEMERGENCE, Rate 50 g/ha): 3 | Plant response rating, Giant foxtail (giant foxtail; PREEMERGENCE, Rate 50 g/ha): 0 | Plant response rating (0 to 10 scale), Giant foxtail (giant foxtail; PREEMERGENCE, Rate 200 g/ha): 0 | Plant response rating, Giant foxtail (giant foxtail; Rate 200 g/ha, POSTEMERGENCE): 3 | Plant response rating, Rice (rice; POSTEMERGENCE, Rate 50 g/ha): 4 | Plant response rating, Rice (rice; PREEMERGENCE, Rate 50 g/ha): 0 | Plant response rating (0 to 10 scale), Rice (rice; PREEMERGENCE, Rate 200 g/ha): 2 | Plant response rating, Rice (rice; Rate 200 g/ha, POSTEMERGENCE): 5 | Plant response rating, Corn (corn; POSTEMERGENCE, Rate 50 g/ha): 5 | Plant response rating, Corn (corn; PREEMERGENCE, Rate 50 g/ha): 0 | Plant response rating (0 to 10 scale), Corn (corn; PREEMERGENCE, Rate 200 g/ha): 0 | Plant response rating, Corn (corn; Rate 200 g/ha, POSTEMERGENCE): 3 | Plant response rating, Crabgrass (crabgrass; POSTEMERGENCE, Rate 50 g/ha): 3 | Plant response rating, Crabgrass (crabgrass; PREEMERGENCE, Rate 50 g/ha): 0 | Plant response rating (0 to 10 scale), Crabgrass (crabgrass; PREEMERGENCE, Rate 200 g/ha): 0 | Plant response rating, Crabgrass (crabgrass; Rate 200 g/ha, POSTEMERGENCE): 5 | Plant response rating, Blackgrass (blackgrass; POSTEMERGENCE, Rate 50 g/ha): 2 | Plant response rating, Blackgrass (blackgrass; PREEMERGENCE, Rate 50 g/ha): 1 | Plant response rating (0 to 10 scale), Blackgrass (blackgrass; PREEMERGENCE, Rate 200 g/ha): 2 | Plant response rating, Blackgrass (blackgrass; Rate 200 g/ha, POSTEMERGENCE): 3 | Plant response rating, Wild buckwheat (wild buckwheat; POSTEMERGENCE, Rate 50 g/ha): 10 | Plant response rating, Wild buckwheat (wild buckwheat; PREEMERGENCE, Rate 50 g/ha): 5 | Plant response rating (0 to 10 scale), Wild buckwheat (wild buckwheat; PREEMERGENCE, Rate 200 g/ha): 10 | Plant response rating, Wild buckwheat (wild buckwheat; Rate 200 g/ha, POSTEMERGENCE): 10 | Plant response rating, Sugar beet (sugar beet; POSTEMERGENCE, Rate 50 g/ha): 10 | Plant response rating, Sugar beet (sugar beet; PREEMERGENCE, Rate 50 g/ha): 9 | Plant response rating (0 to 10 scale), Sugar beet (sugar beet; PREEMERGENCE, Rate 200 g/ha): 10 | Plant response rating, Sugar beet (sugar beet; Rate 200 g/ha, POSTEMERGENCE): 10 | Plant response rating, Chickweed (chickweed; POSTEMERGENCE, Rate 50 g/ha): 2 | Plant response rating, Chickweed (chickweed; PREEMERGENCE, Rate 50 g/ha): 0 | Plant response rating (0 to 10 scale), Chickweed (chickweed; PREEMERGENCE, Rate 200 g/ha): 0 | Plant response rating, Chickweed (chickweed; Rate 200 g/ha, POSTEMERGENCE): 5 | Plant response rating, Velvetleaf (velvetleaf; POSTEMERGENCE, Rate 50 g/ha): 10 | Plant response rating, Velvetleaf (velvetleaf; PREEMERGENCE, Rate 50 g/ha): 3 | Plant response rating (0 to 10 scale), Velvetleaf (velvetleaf; PREEMERGENCE, Rate 200 g/ha): 6 | Plant response rating, Velvetleaf (velvetleaf; Rate 200 g/ha, POSTEMERGENCE): 10 | Plant response rating, Wild oat (wild oat; POSTEMERGENCE, Rate 50 g/ha): 3 | Plant response rating, Wild oat (wild oat; PREEMERGENCE, Rate 50 g/ha): 0 | Plant response rating (0 to 10 scale), Wild oat (wild oat; PREEMERGENCE, Rate 200 g/ha): 0 | Plant response rating, Wild oat (wild oat; Rate 200 g/ha, POSTEMERGENCE): 3 | Plant response rating, Cotton (cotton; POSTEMERGENCE, Rate 50 g/ha): 10 | Plant response rating, Cotton (cotton; PREEMERGENCE, Rate 50 g/ha): 0 | Plant response rating (0 to 10 scale), Cotton (cotton; PREEMERGENCE, Rate 200 g/ha): 0 | Plant response rating, Cotton (cotton; Rate 200 g/ha, POSTEMERGENCE): 10 | Plant response rating, Cocklebur (cocklebur; POSTEMERGENCE, Rate 50 g/ha): 10 | Plant response rating, Cocklebur (cocklebur; PREEMERGENCE, Rate 50 g/ha): 0 | Plant response rating (0 to 10 scale), Cocklebur (cocklebur; PREEMERGENCE, Rate 200 g/ha): 2 | Plant response rating, Cocklebur (cocklebur; Rate 200 g/ha, POSTEMERGENCE): 10 | Plant response rating, Barnyardgrass (barnyardgrass; POSTEMERGENCE, Rate 50 g/ha): 5 | Plant response rating, Barnyardgrass (barnyardgrass; PREEMERGENCE, Rate 50 g/ha): 0 | Plant response rating (0 to 10 scale), Barnyardgrass (barnyardgrass; PREEMERGENCE, Rate 200 g/ha): 1 | Plant response rating, Barnyardgrass (barnyardgrass; Rate 200 g/ha, POSTEMERGENCE): 7 | Plant response rating, Morningglory (morningglory; POSTEMERGENCE, Rate 50 g/ha): 9 | Plant response rating, Morningglory (morningglory; PREEMERGENCE, Rate 50 g/ha): 0 | Plant response rating (0 to 10 scale), Morningglory (morningglory; PREEMERGENCE, Rate 200 g/ha): 8 | Plant response rating, Morningglory (morningglory; Rate 200 g/ha, POSTEMERGENCE): 10 | Plant response rating, Rape (rape; POSTEMERGENCE, Rate 50 g/ha): 7 | Plant response rating, Rape (rape; PREEMERGENCE, Rate 50 g/ha): 0 | Plant response rating (0 to 10 scale), Rape (rape; PREEMERGENCE, Rate 200 g/ha): 0 | Plant response rating, Rape (rape; Rate 200 g/ha, POSTEMERGENCE): 10 | Plant response rating, Lambsquarter (lambsquarters; POSTEMERGENCE, Rate 50 g/ha): 9 | Plant response rating, Lambsquarter (lambsquarters; PREEMERGENCE, Rate 50 g/ha): 10 | Plant response rating (0 to 10 scale), Lambsquarter (lambsquarters; PREEMERGENCE, Rate 200 g/ha): 10 | Plant response rating, Lambsquarter (lambsquarters; Rate 200 g/ha, POSTEMERGENCE): 10 | Plant response rating, Sorghum (sorghum; POSTEMERGENCE, Rate 50 g/ha): 4 | Plant response rating, Sorghum (sorghum; PREEMERGENCE, Rate 50 g/ha): 0 | Plant response rating (0 to 10 scale), Sorghum (sorghum; PREEMERGENCE, Rate 200 g/ha): 0 | Plant response rating, Sorghum (sorghum; Rate 200 g/ha, POSTEMERGENCE): 4 | Plant response rating, Bedstraw (bedstraw; POSTEMERGENCE, Rate 50 g/ha): 10 | Plant response rating, Bedstraw (bedstraw; PREEMERGENCE, Rate 50 g/ha): 0 | Plant response rating (0 to 10 scale), Bedstraw (bedstraw; PREEMERGENCE, Rate 200 g/ha): 1 | Plant response rating, Bedstraw (bedstraw; Rate 200 g/ha, POSTEMERGENCE): 10 | Plant response rating, Nutsedge (purple nutsedge; POSTEMERGENCE, Rate 50 g/ha): 2 | Plant response rating, Nutsedge (purple nutsedge; PREEMERGENCE, Rate 50 g/ha): 0 | Plant response rating (0 to 10 scale), Nutsedge (purple nutsedge; PREEMERGENCE, Rate 200 g/ha): 0 | Plant response rating, Nutsedge (purple nutsedge; Rate 200 g/ha, POSTEMERGENCE): 2 | Plant response rating, Cheatgrass (cheatgrass; POSTEMERGENCE, Rate 50 g/ha): 2 | Plant response rating, Cheatgrass (cheatgrass; PREEMERGENCE, Rate 50 g/ha): 2 | Plant response rating (0 to 10 scale), Cheatgrass (cheatgrass; PREEMERGENCE, Rate 200 g/ha): 2 | Plant response rating, Cheatgrass (cheatgrass; Rate 200 g/ha, POSTEMERGENCE): 3 | Plant response rating, Wheat (wheat; POSTEMERGENCE, Rate 50 g/ha): 3 | Plant response rating, Wheat (wheat; PREEMERGENCE, Rate 50 g/ha): 0 | Plant response rating (0 to 10 scale), Wheat (wheat; PREEMERGENCE, Rate 200 g/ha): 0 | Plant response rating, Wheat (wheat; Rate 200 g/ha, POSTEMERGENCE): 2 | Plant response rating, Soybean (soybean; POSTEMERGENCE, Rate 50 g/ha): 6 | Plant response rating, Soybean (soybean; PREEMERGENCE, Rate 50 g/ha): 0 | Plant response rating (0 to 10 scale), Soybean (soybean; PREEMERGENCE, Rate 200 g/ha): 0 | Plant response rating, Soybean (soybean; Rate 200 g/ha, POSTEMERGENCE): 5
